Data: patent US12594264B2, “Modulators of alpha-synuclein proteolysis and associated methods of use” (Arvinas Operations, Inc., priority 2018, dated 2026)
Counter-ions that a name gives are not always drawn.

How the values were obtained:
[1] = test system: PFF induced HEK293 TREX α-syn A53T cells; assay: Cytotoxicity by visual inspection of treated cells; type: cell-based, human; settings: 1 μM
Description: (§1) Targeted degradation of sarkosyl insoluble (SI) α-synuclein via exemplary bifunctional compounds was assessed by MJFF-14-6-4-2 conformation specific ELISA following treatment of PFF induced A53T α-synuclein overexpressing HEK293 cells with 1 μM exemplary compound compared to DMSO vehicle control. Degradation activity of the exemplary compounds of Table 2 is expressed as % DMSO control. […] However, the effect of bifunctional targeting degraders, shown in FIG. 5, required the intact E3 ligase binding domain.
(§2) Trex293 (doxycycline inducible) cells stably expressing human α-SYN A53T (monoclonal) were plated in poly-d-lysine coated T-75 tissue culture flasks (4.5×10e6 cells/flask) in DMEM with 10% tet-free FBS, 10 μg/ml blasticidin, and 400 μg/ml zeocin. After an overnight incubation, the cells were induced to express α-SYN by treatment with 1 μg/ml doxycycline (Dox) and exemplary bifunctional compound. After a 24 hour dox induction, the medium on the cells was changed to Opti-MEM followed by treatment with α-SYN pre-formed fibrils** (PFFs)(5 μg/flask) pre-complexed with Lipofectamine 2000 transfection reagent for 4 hours. After PFF treatment, the medium was changed back to DMEM with the supplements described above and exemplary bifunctional compound for 48 hours.
To assess targeted degradation of sarkosyl insoluble α-synuclein, exemplary bifunctional compounds designed to bind to oligomeric α-synuclein were tested at 1 μM in PFF induced HEK293 TREX α-syn A53T cells.

[2] = biological target: T1, sarkosyl insoluble (SI) α-synuclein (human α-SYN A53T) (Homo sapiens, UniProt P37840, A53T); assay: MJFF-14-6-4-2 conformation specific ELISA of sarkosyl insoluble α-synuclein after compound treatment; type: cell-based; settings: 1 μM compound; protein remaining relative to DMSO control; PFF induced A53T α-synuclein overexpressing HEK293 cells; read-out: Protein Degradation at 1 μM
T1 construct: expressed in transfected cells
Description: as §1, §2
Cell pellets were harvested from each flask using 0.25% trypsin followed by spinning at 500×g for 5 minutes. Each pellet was resuspended in 1 ml cold buffer H [Buffer H-10 mM Tris, 1 mM EGTA, 0.8M NaCl, 10% sucrose, pH7.4 containing 1× protease and phosphatase inhibitors] containing protease and phosphatase inhibitors. The resuspended pellets were incubated on ice for 20 minutes followed by centrifugation at 27,200×g for 20 minutes at 4° C. The supernatants were adjusted to 1% sarkosyl (Sigma) and 1% 2-mercaptoethanol followed by incubation for 1 hour at 37° C. on an orbital shaker set to 400 rpm. The samples were then spun at 150,000×g for 35 minutes at room temperature. The supernatant was removed and saved as the soluble fraction and the insoluble pellet was resuspended in 25 μl tris-buffered saline (TBS). Protein concentrations were determined by NanoDrop, and normalized protein concentrations were analyzed by WES capillary electrophoresis as well as an α-SYN oligomer ELISA.
Recombinant human α-SYN was purchased from Proteos. 1 mg aliquots were supplied at 10 mg/ml in 10 mM Tris, 50 mM NaCl, pH7.6. The aliquot was thawed on ice followed by centrifugation at 4° C. for 10 minutes at 12,000×g to pellet any insoluble material. The supernatant was removed and quantitated on a NanoDrop (A280) using Beer's Law (ε=5960 M-1 cm-1). The concentration was adjusted to 5 mg/ml in PBS followed by vortexing for 3 seconds to mix contents. The mixture was incubated in an orbital shaker set to 37° C. at 1,000 rpm for 7 days followed by aliquoting into individual use vials. Prior to addition to cells, an aliquot was thawed at room temperature, then diluted to 1 mg/ml with phosphate-buffered saline (PBS) followed by sonication for 1 minute with a probe sonicator (output 1; 90% duty cycle) in a chem hood.
Coming Costar high bind black well plates were coated with MJFR 14-6-4-2 (Abcam) at 1 μg/ml for 1 hour at 37° C. followed by washing with 1×TBS+0.1% tween-20 (TBS-T) then blocking with 3% bovine serum albumin (BSA) in TBS. After re-washing, samples were added after dilution in diluent (1% BSA/TBS-T). Non-sonicated PFF was used to generate a standard curve. The plates were incubated with sample overnight at 4° C. with shaking. The following day alkaline phosphatase (AP) conjugated MJFR 14-6-4-2 was added to the plate without washing followed by incubation at room temperature for 1 hour with shaking or rocking. The plates were then re-washed and substrate (CDP star alkaline phosphatase detection reagent) was added followed by a 30 minute incubation at room temperature. The plate was read on a luminescence plate reader. The counts were log transformed and read off the standard curve. […]

| remaining activity at 1 µM [2] | Compound | Cytotoxicity at the concentration tested [1] | further results |
| --- | --- | --- | --- |
| – | Cc1ncsc1-c1ccc([C@H](C)NC(=O)[C@@H]2C[C@@H](O)CN2C(=O)[C@@H](NC(=O)COCCOCCOc2ccc(CN3C(=O)C(=CC=Cc4ccc([N+](=O)[O-])cc4)c4ccccc43)cc2)C(C)(C)C)cc1 (single isomer, unassigned) [Exemplary Compound 6] | without any visual impact to cell health | – |
| 35 to 70% | CNc1ccc(-c2nc3ccc(OCCOCCOCCOCC(=O)N[C@H](C(=O)N4C[C@H](O)C[C@H]4C(=O)N[C@@H](C)c4ccc(-c5scnc5C)cc4)C(C)(C)C)cc3s2)cc1 [Exemplary Compound 2, (2S,4R)-1-((S)-2-(tert-butyl)-14-((2-(4-(methylamino)phenyl)benzo[d]thiazol-6-yl)oxy)-4-oxo-6,9,12-trioxa-3-azatetradecanoyl)-4-hydroxy-N—((S)-1-(4-(4-methylthiazol-5-yl)phenyl)ethyl)pyrrolidine-2-carboxamide] | without any visual impact to cell health | – |
| < 35% | CNc1ccc(-c2nc3ccc(OCCOCCOCCOCCOCCOCCOCC(=O)N[C@H](C(=O)N4C[C@H](O)C[C@H]4C(=O)N[C@@H](C)c4ccc(-c5scnc5C)cc4)C(C)(C)C)cc3s2)cc1 [Exemplary Compound 5, (2S,4R)-1-((S)-2-(tert-butyl)-23-((2-(4-(methylamino)phenyl)benzo[d]thiazol-6-yl)oxy)-4-oxo-6,9,12,15,18,21-hexaoxa-3-azatricosanoyl)-4-hydroxy-N-((S)-1-(4-(4-methylthiazol-5-yl)phenyl)ethyl)pyrrolidine-2-carboxamide] | without any visual impact to cell health | – |
| > 120% | Cc1ncsc1-c1ccc([C@H](C)NC(=O)[C@@H]2C[C@@H](O)CN2C(=O)[C@@H](NC(=O)COCCOCCOCCOc2ccc3c(c2)Sc2cc([N+](=O)[O-])ccc2N3)C(C)(C)C)cc1 [Exemplary Compound 9, (2S,4R)-1-((S)-2-(tert-butyl)-14-((7-nitro-10H-phenothiazin-3-yl)oxy)-4-oxo-6,9,12-trioxa-3-azatetradecanoyl)-4-hydroxy-N-((S)-1-(4-(4-methylthiazol-5-yl)phenyl)ethyl)pyrrolidine-2-carboxamide] | cytotoxicity | Cytotoxicity at the concentration tested ([1]; listed as 9): cytotoxic |
| > 120% | Cc1ncsc1-c1ccc([C@H](C)NC(=O)[C@@H]2C[C@@H](O)CN2C(=O)[C@@H](NC(=O)COCCOCCOCCOCCOCCOCCOc2ccc3c(c2)Sc2cc([N+](=O)[O-])ccc2N3)C(C)(C)C)cc1 [Exemplary Compound 12, (2S,4R)-1-((S)-2-(tert-butyl)-23-((7-nitro-10H-phenothiazin-3-yl)oxy)-4-oxo-6,9,12,15,18,21-hexaoxa-3-azatricosanoyl)-4-hydroxy-N-((S)-1-(4-(4-methylthiazol-5-yl)phenyl)ethyl)pyrrolidine-2-carboxamide] | cytotoxicity | Cytotoxicity at the concentration tested ([1]; listed as 12): cytotoxic |
| – | O=C1CCC(N2C(=O)c3ccc(OCCOCCOCCOCCOc4ccc5c(c4)Sc4cc([N+](=O)[O-])ccc4N5)cc3C2=O)C(=O)N1 (stereo not shown) [Exemplary Compound 13, 2-(2,6-dioxo-3-piperidyl)-5-[2-[2-[2-[2-[(7-nitro-10H-phenothiazin-3-yl)oxy]ethoxy]ethoxy]ethoxy]ethoxy]isoindoline-1,3-dione] | cytotoxicity | Cytotoxicity at the concentration tested ([1]; listed as 13): cytotoxic |
| > 120% | COc1ccc2nc(-c3ccc(N4CC(OC5CCN(CCCCCOc6ccc7c(c6)C(=O)N(C6CCC(=O)NC6=O)C7=O)CC5)C4)cc3)sc2c1 (stereo not shown) [Exemplary Compound 25, 2-(2,6-dioxopiperidin-3-yl)-5-([5-[4-([1-[4-(6-methoxy-1,3-benzothiazol-2-yl)phenyl]azetidin-3-yl]oxy)piperidin-1-yl]pentyl]oxy)-2,3-dihydro-1H-isoindole-1,3-dione] | cytotoxicity | Cytotoxicity at the concentration tested ([1]; listed as 25): cytotoxic |
| 35 to 70% | COc1cc(/C=C/c2ccc3cc(OCCOCCOCCOCC(=O)N[C@H](C(=O)N4C[C@H](O)C[C@H]4C(=O)N[C@@H](C)c4ccc(-c5scnc5C)cc4)C(C)(C)C)ccc3n2)ccn1 [Exemplary Compound 35, (2S,4R)-1-((S)-2-(tert-butyl)-14-((2-((E)-2-(2-methoxypyridin-4-yl)vinyl)quinolin-6-yl)oxy)-4-oxo-6,9,12-trioxa-3-azatetradecanoyl)-4-hydroxy-N—((S)-1-(4-(4-methylthiazol-5-yl)phenyl)ethyl)pyrrolidine-2-carboxamide] | – | – |
| > 120% | COc1cc(/C=C/c2ccc3cc(OCCOCCOCCOCCOc4ccc5c(c4)C(=O)N(C4CCC(=O)NC4=O)C5=O)ccc3n2)ccn1 (stereo not shown) [Exemplary Compound 36, 2-(2,6-dioxo-3-piperidyl)-5-[2-[2-[2-[2-[[2-[(E)-2-(2-methoxy-4-pyridyl)vinyl]-6-quinolyl]oxy]ethoxy]ethoxy]ethoxy]ethoxy]isoindoline-1,3-dione] | – | – |
| 70 to 120% | COc1cc(/C=C/c2ccc3cc(OCCOCCOCCOc4ccc5c(c4)C(=O)N(C4CCC(=O)NC4=O)C5=O)ccc3n2)ccn1 (stereo not shown) [Exemplary Compound 47, (E)-2-(2,6-dioxopiperidin-3-yl)-5-(2-(2-(2-((2-(2-(2-methoxypyridin-4-yl)vinyl)quinolin-6-yl)oxy)ethoxy)ethoxy)ethoxy)isoindoline-1,3-dione] | – | – |

| Compound | remaining activity at 1 µM [2] | Cytotoxicity at the concentration tested [1] | further results |
| --- | --- | --- | --- |
| O=C1CCC(N2C(=O)c3ccc(N4CCN(CCCO[C@H]5C[C@H](Oc6ccc7c(c6)Sc6cc([N+](=O)[O-])ccc6N7)C5)CC4)cc3C2=O)C(=O)N1 (stereo partly shown) [Exemplary Compound 30, 2-(2,6-dioxo-3-piperidyl)-5-[4-[3-[3-[(7-nitro-10H-phenothiazin-3-yl)oxy]cyclobutoxy]propyl]piperazin-1-yl]isoindoline-1,3-dione formate] | 35 to 70% | – | – |
| O=C1CCC(N2C(=O)c3ccc(OCCCCCN4CCC(O[C@H]5C[C@H](Oc6ccc(CN7C(=O)C(=CC=Cc8ccc([N+](=O)[O-])cc8)c8ccccc87)cc6)C5)CC4)cc3C2=O)C(=O)N1 (stereo partly shown) [Exemplary Compound 31, 2-(2,6-dioxopiperidin-3-yl)-5-((5-(4-((1r,3r)-3-(4-(((Z)-3-((E)-3-(4-nitrophenyl)allylidene)-2-oxoindolin-1-yl)methyl)phenoxy)cyclobutoxy)piperidin-1-yl)pentyl)oxy)isoindoline-1,3-dione] | 70 to 120% | – | – |
| Cc1ncsc1-c1ccc([C@H](C)NC(=O)[C@@H]2C[C@@H](O)CN2C(=O)[C@@H](NC(=O)CN2CCN(CCN3CCC(O[C@H]4C[C@H](Oc5ccc6c(c5)Sc5cc([N+](=O)[O-])ccc5N6)C4)CC3)CC2)C(C)(C)C)cc1 [Exemplary Compound 34, (2S,4R)-1-((S)-3,3-dimethyl-2-(2-(4-(2-(4-((1r,3r)-3-((7-nitro-10H-phenothiazin-3-yl)oxy)cyclobutoxy)piperidin-1-yl)ethyl)piperazin-1-yl)acetamido)butanoyl)-4-hydroxy-N-((S)-1-(4-(4-methylthiazol-5-yl)phenyl)ethyl)pyrrolidine-2-carboxamide] | < 35% | – | – |
